Activity calls are given as the source filed them.
Experiments:
[1] = target: T1, Tyrosine-protein phosphatase non-receptor type 1 (Homo sapiens) (UniProt P18031); assay: Inhibition of human PTP1B at 10 uM
T1 sequence (whole entry): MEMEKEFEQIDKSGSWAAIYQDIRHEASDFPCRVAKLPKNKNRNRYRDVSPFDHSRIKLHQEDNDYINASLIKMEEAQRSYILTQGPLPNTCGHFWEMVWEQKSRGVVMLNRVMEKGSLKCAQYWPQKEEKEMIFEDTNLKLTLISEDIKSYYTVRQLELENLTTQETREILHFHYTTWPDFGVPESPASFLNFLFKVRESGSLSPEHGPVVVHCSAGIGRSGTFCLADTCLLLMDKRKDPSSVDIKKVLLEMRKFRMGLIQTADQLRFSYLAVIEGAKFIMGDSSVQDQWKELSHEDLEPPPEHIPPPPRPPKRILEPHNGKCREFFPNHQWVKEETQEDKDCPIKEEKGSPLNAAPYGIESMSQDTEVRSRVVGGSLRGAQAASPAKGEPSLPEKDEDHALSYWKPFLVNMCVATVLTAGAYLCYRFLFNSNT

[2] = tested on: A2780; assay: Cytotoxicity against human A2780 cells at 10 uM after 96 hrs by MTT assay; assay type: functional, cell-based
[3] = tested on: HCT-8; assay: Cytotoxicity against human HCT8 cells at 10 uM after 96 hrs by MTT assay; assay type: functional, cell-based
[4] = tested on: Bel-7402; assay: Cytotoxicity against human Bel7402 cells at 10 uM after 96 hrs by MTT assay; assay type: functional, cell-based
[5] = tested on: BGC-823; assay: Cytotoxicity against human BGC823 cells at 10 uM after 96 hrs by MTT assay; assay type: functional, cell-based
[6] = tested on: A549; assay: Cytotoxicity against human A549 cells at 10 uM after 96 hrs by MTT assay; assay type: functional, cell-based
[7] = tested on: Peritoneal macrophage cell; assay: Inhibition of LPS-induced TNFalpha secretion in C57BL/6J mouse peritoneal macrophages at 10 uM after 24 hrs; assay type: functional, cell-based

CC(C)=C[C@H]1C[C@](O)([C@H]2CC[C@]3(C)[C@@H]2CC[C@@H]2[C@@]4(C)CC[C@H](O[C@@H]5OC[C@H](O)[C@H](O[C@@H]6OC[C@@H](O)[C@H](O)[C@H]6O)[C@H]5O[C@@H]5O[C@@H](C)[C@H](O)[C@@H](O)[C@H]5O)C(C)(C)[C@@H]4CC[C@]23C)C(=O)O1
inactive: inhibition [1] | Activity [2] | Activity [3] | Activity [4] | Activity [5] | Activity [6] | inhibition [7]

CC(C)=CCC[C@@](O)(CO[C@@H]1O[C@H](CO)[C@@H](O)[C@H](O)[C@H]1O)[C@H]1CC[C@]2(C)[C@@H]1CC[C@@H]1[C@@]3(C=O)CC[C@H](O[C@@H]4O[C@H](CO)[C@@H](O)[C@H](O[C@@H]5OC[C@@H](O)[C@H](O)[C@H]5O)[C@H]4O[C@@H]4O[C@@H](C)[C@H](O)[C@@H](O)[C@H]4O)C(C)(C)[C@@H]3CC[C@]12C
inactive: inhibition [1] | Activity [2] | Activity [3] | Activity [4] | Activity [5] | Activity [6] | inhibition [7]

CC(C)=C[C@@H]1C[C@](O)([C@H]2CC[C@]3(C)[C@@H]2CC[C@@H]2[C@@]4(C)CC[C@H](O[C@@H]5O[C@H](CO)[C@@H](O)[C@H](O[C@@H]6OC[C@@H](O)[C@H](O)[C@H]6O)[C@H]5O)C(C)(C)[C@@H]4CC[C@]23C)C(=O)O1
inactive: inhibition [1] | Activity [2] | Activity [3] | Activity [4] | Activity [5] | Activity [6] | inhibition [7]

CC(=O)OC[C@H]1O[C@@H](O[C@H]2CC[C@]3(C)[C@H]4CC[C@@H]5[C@@H]([C@](O)(CO)CCC=C(C)C)CC[C@@]5(C)[C@]4(C)CC[C@H]3C2(C)C)[C@H](O[C@@H]2O[C@@H](C)[C@H](O)[C@@H](O)[C@H]2O)[C@@H](O[C@@H]2OC[C@@H](O)[C@H](O)[C@H]2O)[C@@H]1O
inactive: inhibition [1] | Activity [2] | Activity [3] | Activity [4] | Activity [5] | Activity [6] | inhibition [7]

CC(C)=CCC[C@@](O)(CO)[C@H]1CC[C@]2(C)[C@@H]1CC[C@@H]1[C@@]3(C=O)CC[C@H](O[C@@H]4OC[C@H](O)[C@H](O[C@@H]5OC[C@@H](O)[C@H](O)[C@H]5O)[C@H]4O)C(C)(C)[C@@H]3CC[C@]12C
inactive: inhibition [1] | Activity [2] | Activity [3] | Activity [4] | Activity [5] | Activity [6] | inhibition [7]

CC(C)=CCC[C@@](O)(CO[C@@H]1O[C@H](CO[C@@H]2O[C@H](CO)[C@@H](O)[C@H](O)[C@H]2O)[C@@H](O)[C@H](O)[C@H]1O)[C@H]1CC[C@]2(C)[C@@H]1CC[C@@H]1[C@@]3(C)CC[C@H](O[C@@H]4O[C@H](CO)[C@@H](O)[C@H](O[C@@H]5OC[C@@H](O)[C@H](O)[C@H]5O)[C@H]4O[C@@H]4O[C@@H](C)[C@H](O)[C@@H](O)[C@H]4O)C(C)(C)[C@@H]3CC[C@]12C
inactive: inhibition [1] | Activity [2] | Activity [3] | Activity [4] | Activity [5] | Activity [6] | inhibition [7]

CC(C)=CCC[C@@](O)(CO[C@@H]1O[C@H](CO)[C@@H](O)[C@H](O)[C@H]1O)[C@H]1CC[C@]2(C)[C@@H]1CC[C@@H]1[C@@]3(C)CC[C@H](O[C@@H]4OC[C@H](O)[C@H](O[C@@H]5OC[C@@H](O)[C@H](O)[C@H]5O)[C@H]4O[C@@H]4O[C@@H](C)[C@H](O)[C@@H](O)[C@H]4O)C(C)(C)[C@@H]3CC[C@]12C
inactive: inhibition [1] | Activity [2] | Activity [3] | Activity [4] | Activity [5] | Activity [6] | inhibition [7]

CC(C)=CCC[C@@](O)(CO)[C@H]1CC[C@]2(C)[C@@H]1CC[C@@H]1[C@@]3(C)CC[C@H](O[C@@H]4OC[C@H](O)[C@H](O[C@@H]5OC[C@@H](O)[C@H](O)[C@H]5O)[C@H]4O[C@@H]4O[C@@H](C)[C@H](O)[C@@H](O)[C@H]4O)C(C)(C)[C@@H]3CC[C@]12C
inactive: inhibition [1] | Activity [2] | Activity [3] | Activity [4] | Activity [5] | Activity [6] | inhibition [7]

CC(C)=C[C@@H]1C[C@](O)([C@H]2CC[C@]3(C)[C@@H]2CC[C@@H]2[C@@]4(C)CC[C@H](O[C@@H]5OC[C@H](O)[C@H](O[C@@H]6OC[C@@H](O)[C@H](O)[C@H]6O)[C@H]5O[C@@H]5O[C@@H](C)[C@H](O)[C@@H](O)[C@H]5O)C(C)(C)[C@@H]4CC[C@]23C)C(=O)O1
inactive: inhibition [1] | Activity [2] | Activity [3] | Activity [4] | Activity [5] | Activity [6] | inhibition [7]

From ChEMBL document CHEMBL2069292, “Dammarane glycosides from the root of Machilus yaoshansis” (J Nat Prod, 2012)
